According to patent publication US7875270B2, “Treatment solution and method for preventing posterior capsular opacification by selectively inducing detachment and/or death of lens epithelial cells” (Abbott Medical Optics Inc., priority 2002, dated 2011):

Key:
Assay type in all cases: cell-based
Details in all cases: 28 μM, 112 μM and 224 μM bumetanide, ≦200 mM NaCl, 3 μl of 5N NaOH
[1] = tested on: human retinal-pigmented epithelial cells (RPECs); test: Confluent RPEC monolayers exposed to solutions; MTT cell viability
Description: (§1) As described below, the confluent monolayers of LECs, CEDCs, and RPECs grown in 96-well flat-bottom plates are exposed to varying concentrations of NaCl (an osmolyte) solution. Two hundred μl of NaCl solution (prepared as described below) are added to each well at concentrations of 137 mM, 170 mM, 340 mM, 680 mM, 1360 mM and 2000 mM NaCl, respectively. The solutions have a pH of 8.0±0.4. The concentrations of NaCl correspond to final osmolarities of about 285 to 4000 mOsm/L, respectively.
(§2) The primary and first passages of human lens epithelial cells, human corneal endothelial cells, and human retinal-pigmented epithelial cells are cultured. The LECs, the CEDCs, and the RPECs are isolated from post-mortem eyes by using standard techniques of cell isolation and enzyme digestion. See Uebersax E D, Grindstaff R D and Defoe D M Exp Eye Res. 2000 March; 70(3): 381-90; Wagner L M, Saleh S M, Boyle D J, and Takemoto D J. Mol Vis. 2002 Mar. 14; 8: 59-66; Cammarata P R, Schafer G, Chen S W, Guo Z, and Reeves R E. Invest Ophthalmol Vis Sci. 2002 February; 43(2): 425-33; Rakic J M, Galand A, and Vrensen G F. Exp Eye Res. 2000 November; 71(5): 489-94. LECs and CEDCs are cultured in Eagle's minimum essential medium (MEM). RPECs are cultured in Ham's F10 medium, supplemented with 2 mM glutamine, 25 mmol/L Hepes, pH 7.4, 10 U/mL penicillin, and 10 μg/mL streptomycin and 15% heat-inactivated foetal cow serum (FCS). The primary cultured LECs, CEDCs, and RPECs are sub-cultured at 10^4 cells/wells in 96-well flat-bottom plates until they reached 90 to 100% confluence. These cells are grown to confluence in an incubator with a humidified atmosphere of 5% CO2 at 37° C. The cells are kept in a confluent state for overnight before assays.
(§3) After treatment, the treated cells are thoroughly washed, and cultured with fresh media for twelve hours before cell viability is assessed. The capability of these cells to survive at the indicated hypertonic stress levels is assessed by an MTT assay 12-24 hours post-exposure.
(§4) MTT assay is an assay to assess mitochondria function, performed as described by Mosmann (Mosmann, T. J Immunol Methods. 1983 Dec. 16; 65(1-2): 55-63. The tetrazolium salt 3-(4,5-dimethylthiazol-2-yl)-2,5-diphenyl tetrazolium bromide (MTT; supplied by Sigma Chemical Co.) is dissolved in Phosphate's Balanced Salt (PBS) Solutions at 5 mg/ml and sterilized by passage through a 0.22 μm Millipore filter. MTT stock solution is added to growth media at a ratio of 1 to 10. Cells are incubated with this growth media for three to four hours. In cells that are alive at the time of adding MTT, mitochondrial dehydrogenase cleaves the tetrazolium ring into a dark blue formazan reaction product, which builds up in the cell. MTT-reacted cultures are observed under brightfield microscopy without further processing. Cells in each well are scored as MTT-positive if they are completely filled with reaction product (in the case of unattached cells) or contain many formazan crystals emanating from multiple foci (in the case of attached or spread cells). MTT-reacted cultures are then lysised by dimethyl sulfoxide (DMSO) and read in a Microplate Reader to obtain a measure of cell viability.
Confluent monolayers of RPECs are prepared as described in Example 1. These cells are exposed for ten minutes to 200 μl/well of the solutions comprising increasing concentrations of NaCl (137 mM, 170 mM, 340 mM, 680 mM, 1360 mM and 2000 mM) at varying pH (8.4±0.5 and 10.6±0.5). The solutions of NaCl are prepared as described in Example 1. The pH of the solutions is adjusted with additions of 1 μl and 5 μl of 5N NaOH as described Example 3.
Confluent monolayers of LECs and RPECs are prepared as described in Example 1. […]
Confluent monolayers of LECs, CEDCs and RPECs are prepared as described in Example 1. […]
To assess whether there is any side effect of this treatment on other ocular cells, confluent monolayers of LECs, CEDCs and RPECs are prepared as described in Example 1. […]

[2] = tested on: human lens epithelial cells (LECs); test: Confluent LEC monolayers exposed to solutions; MTT cell viability and microscopy
[3] = tested on: human corneal endothelial cells (CEDCs); test: Confluent CEDC monolayers exposed to solutions; MTT cell viability
Description: as §1
as §2, with “The primary cultured LECs, CEDCs, and RPECs are sub-cultured at 10^4 cells/wells in 96-well flat-bottom plates until they reached 90 to 100% confluence. These cells are grown to confluence in an incubator with a humidified atmosphere of 5% CO2 at 37° C. The cells are kept in a confluent state for overnight before assays.” left out
as §3
as §4, with “MTT-reacted cultures are observed under brightfield microscopy without further processing.” left out, “viability. […]” for “viability.”

CCCCNc1cc(C(=O)O)cc(S(N)(=O)=O)c1Oc1ccccc1 [bumetanide]
RPECs killed or removed [1]: less than 20%
LECs showing MTT negative response [2]: ~100%
LEC response under phase-contrast microscopic observation ([2]; about ten minutes): nearly all of the LECs shrink, detach and/or die
CEDCs killed or removed [3]: < 30%
